Measured values: article doi:10.1101/2025.09.04.674280 (bioRxiv, 2025)

Experiments:
DgSTING = experiment: EMSA titration with […]-labeled ligand; format: binding, Diaphanoeca grandis
SdSTING = experiment: EMSA titration with […]-labeled ligand; format: binding, Stephanoeca diplocostata

Compound: Nc1nc2c(ncn2[C@@H]2O[C@@H]3COP(=O)(O)O[C@H]4[C@@H](O)[C@H](n5cnc6c(=O)[nH]c(N)nc65)O[C@@H]4COP(=O)(O)O[C@H]3[C@H]2O)c(=O)[nH]1 [3′3′-c-di-GMP]
- Kd (DgSTING): 590 nM
- Kd (SdSTING): 1750 nM
